Experimental findings from US9284315B2, “Three-ring PI3K and/or mTOR inhibitor” (XUANZHU PHARMA CO., LTD., priority 2011, dated 2016) are described below.

Several values for one entry are separate records, joined by “and”; a condition that tells them apart may be missing. Equal entries are not always repeated. Where two headings read alike, the source gives them in different places.

The target in data set [1] is T1, PI3Kα (Homo sapiens (Human), UniProt P42336). In words: PI3K inhibitory activity, Method 1 activity test. The data set is classed as biochemical. The following applies: PIP2 50 μM, ATP 25 μM. The procedure: Determination of the inhibitory activity of PI3K
T1 sequence (P42336 whole entry): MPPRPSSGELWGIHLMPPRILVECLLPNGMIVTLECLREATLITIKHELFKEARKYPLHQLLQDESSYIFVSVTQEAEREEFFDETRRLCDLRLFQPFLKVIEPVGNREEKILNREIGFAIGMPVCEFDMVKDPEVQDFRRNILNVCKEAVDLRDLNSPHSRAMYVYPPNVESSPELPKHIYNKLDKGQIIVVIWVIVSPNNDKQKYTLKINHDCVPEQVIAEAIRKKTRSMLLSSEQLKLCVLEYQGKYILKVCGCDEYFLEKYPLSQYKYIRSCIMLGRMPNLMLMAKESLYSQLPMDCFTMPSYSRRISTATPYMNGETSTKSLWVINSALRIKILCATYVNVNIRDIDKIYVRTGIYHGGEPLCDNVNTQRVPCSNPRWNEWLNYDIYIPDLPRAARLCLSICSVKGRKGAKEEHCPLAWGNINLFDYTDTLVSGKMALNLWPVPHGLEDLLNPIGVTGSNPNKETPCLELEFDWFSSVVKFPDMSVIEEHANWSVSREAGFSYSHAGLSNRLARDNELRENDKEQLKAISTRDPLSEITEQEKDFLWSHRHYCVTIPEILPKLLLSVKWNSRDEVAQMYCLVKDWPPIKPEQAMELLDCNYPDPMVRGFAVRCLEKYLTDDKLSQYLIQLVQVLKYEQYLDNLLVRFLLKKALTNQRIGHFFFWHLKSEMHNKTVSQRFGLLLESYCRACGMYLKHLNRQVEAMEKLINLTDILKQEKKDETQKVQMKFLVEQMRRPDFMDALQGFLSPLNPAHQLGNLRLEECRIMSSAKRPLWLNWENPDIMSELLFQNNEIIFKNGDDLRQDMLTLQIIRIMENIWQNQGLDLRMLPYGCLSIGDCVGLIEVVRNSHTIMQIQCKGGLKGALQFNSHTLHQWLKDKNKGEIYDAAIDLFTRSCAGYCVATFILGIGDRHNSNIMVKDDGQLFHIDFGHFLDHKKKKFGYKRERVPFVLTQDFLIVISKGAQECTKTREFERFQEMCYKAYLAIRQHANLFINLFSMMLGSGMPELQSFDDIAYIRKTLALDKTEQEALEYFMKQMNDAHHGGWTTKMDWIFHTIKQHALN
T1 sequence (P27986 whole entry partner): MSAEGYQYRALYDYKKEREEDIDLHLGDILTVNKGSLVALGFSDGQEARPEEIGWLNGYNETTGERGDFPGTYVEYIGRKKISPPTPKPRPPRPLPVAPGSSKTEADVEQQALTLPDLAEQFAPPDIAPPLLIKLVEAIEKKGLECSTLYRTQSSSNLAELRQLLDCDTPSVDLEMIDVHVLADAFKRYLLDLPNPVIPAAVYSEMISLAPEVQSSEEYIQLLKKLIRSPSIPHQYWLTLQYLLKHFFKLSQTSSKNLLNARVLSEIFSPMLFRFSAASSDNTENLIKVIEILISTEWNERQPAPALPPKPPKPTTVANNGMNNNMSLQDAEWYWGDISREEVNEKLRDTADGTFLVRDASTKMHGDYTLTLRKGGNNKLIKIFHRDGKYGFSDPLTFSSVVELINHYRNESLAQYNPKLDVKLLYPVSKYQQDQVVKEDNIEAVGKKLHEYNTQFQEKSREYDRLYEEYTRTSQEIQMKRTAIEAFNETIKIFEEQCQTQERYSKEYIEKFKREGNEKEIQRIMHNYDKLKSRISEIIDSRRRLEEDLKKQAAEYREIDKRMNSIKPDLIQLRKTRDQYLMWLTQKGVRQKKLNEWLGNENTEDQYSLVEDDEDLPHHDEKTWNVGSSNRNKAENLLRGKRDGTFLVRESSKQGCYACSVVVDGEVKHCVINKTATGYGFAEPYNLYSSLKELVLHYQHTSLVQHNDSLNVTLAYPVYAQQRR
(§1) 1. Preparation of test reagents
(1) 1× kinase buffer (50 mM HEPES, pH 7.5, 3 mM MgCl2, 1 mM EGTA, 100 mM NaCl, 0.03% CHAPS, 2 mM DTT);
(2) 4× kinase solution (added PI3K a kinase to 1× kinase buffer to provide 4× kinase solution with a final concentration of 1.65 nM);
(3) 2× substrate solution (added the substrates of PIP2 and ATP into 1× kinase buffer to provide 2× substrate solution with PIP2 final concentration of 50 μM and ATP final concentration of 25 μM);
(4) 4× test substance solutions (100× test substance solutions with different concentration gradients were prepared using 100% DMSO, and diluted 25-fold with 1× kinase buffer to give 4× test substance solutions with different concentration gradients);
(5) Invitrogen's activity test kit with the test solution was kept stand to room temperature.
(§2) 2. 2.5 μL of 4× test solution was added to a 384-well plate in parallel;
(§3) 3. added […] of 4× kinase solution and incubated for 10 min;
4. then added 5 μL of 2× solutions of PIP2 and ATP substrates and incubated for 1 h at room temperature;
5. finally, added 10 μL of test solution to quench the reaction, and read after 15 min;
(§4) 6. IC50 value was obtained via curve fitting. Inhibition rate (%)=(sample value−minimum)/(maximum−minimum)×100
Maximum refers to the readings of control wells without enzyme, minimum refers to the readings of DMSO control wells.
(§5) IC50 value was obtained via curve fitting using a soft of Graphpad 5.0.

Data set [2] addresses T2, mTOR (Homo sapiens (Human), UniProt P42345). The experiment in a line: mTOR inhibitory activity, Method 1 activity test. It counts as biochemical. Conditions: 4EBP1 50 nM, ATP 10.8 μM. The procedure: Determination of the Inhibitory Activity of mTOR
as §1
(1) 1× kinase buffer (50 mM HEPES, pH 7.5, 10 mM MgCl2, 1 mM EGTA, 3 mM MnCl, 0.01% Tween-20, 2 mM DTT);
(2) 4× kinase solution (added mTOR kinase to 1× kinase buffer to provide 4× kinase solution with a final concentration of 2.5 nM);
(3) 2× substrate solution (added the substrates of 4EBP1 and ATP into 1× kinase buffer to provide 2× substrate solution with 4EBP1 final concentration of 50 nM and ATP final concentration of 10.8 μM);
(4) 4× test substance solutions (100× test substance solutions with different concentration gradients were prepared using 100% DMSO, and diluted 25-fold with 1× kinase buffer to give 4× test substance solutions with different concentration gradients)
(5) preparation of test solution (test solution containing EDTA and 4EBP1 phosphorylated antibody was prepared using activity test kit with assay buffer, the final concentration of EDTA was 8 mM, and the final concentration of 4EBP1 phosphorylated antibody was 2 nM)
as §2, §3
4. then added 5 μL of 2× solutions of 4EBP1 and ATP substrates and incubated for 1 h at room temperature;
5. finally, added 10 μL of test solution to quench the reaction, and read after 60 min;
as §4
Minimum refers to the readings of control wells without enzyme, maximum refers to the readings of DMSO control wells.
as §5

For data set [3], the system named is U87MG. In words: Cell viability assay by XTT method, U87MG. It counts as cell-based. Conditions: Homo sapiens, U-87 MG. The procedure:
(§6) 1. Preparation of Reagents and Compounds
(§7) 2) Preparation of XTT test working solution:
(§8) 100 mg of tetrazolium salt (XTT) powder was weighed and dissolved in dark in 300 mL of phenol red-free serum-free RPMI1640 medium heated to 50° C., filtered and subpackaged, used immediately or within a week. All process should be conducted in dark.
(§9) 3) Preparation of test compounds
(§10) preparation of stock solutions of the test substances: the powder of test substances was dissolved in DMSO in a concentration of 10 mM.
(§11) preparation of gradiently diluted stock solutions of test substances: First, 10 mM of the stock solutions of test substances were diluted serially in 4-fold with DMSO to 10 concentrations. 2 μL of DMSO-diluted solution for each compound was taken and added to 998 μL of culture medium containing 10% fetal bovine serum (FBS). The highest concentration of the test substances was 20 μM, the concentration of DMSO was 0.2%, and there were 10 concentration gradients in total.
(§12) 1) Preparation of cell suspension
(§13) The culture medium was discarded from the flask, and the cells were washed twice with PBS. Added trypsinase to digest the cell and then collected by centrifugation, resuspended with a medium containing 10% FBS, counted and adjusted to an appropriate concentration (cell viability must be greater than 90%). The cell concentration was […].
(§14) 2) The cell suspension was added to 96-well plates, each well 100 μL.
(§15) 3) Incubated in a cell incubator overnight at 37° C., 5% CO2.
(§16) Added compound diluted 2-fold to the cell culture plates, three repeated in total, 100 μL well.
(§17) 5. Cell Viability Assay by XTT Method
(§18) Discarded the culture medium, added XTT test working liquid in an amount of 150 μL well, and kept in a cell incubator at 37° C., 5% CO2 for 2 h, then placed into a microplate reader and read the absorbance at 450 nm.
(§19) 1) The percentage of inhibition was calculated using the following formula: Inhibition rate (%)=(reading(solvent)−reading(compound))/reading(solvent)−reading(positive control))×100
(§20) 2) The data was entered into GraphPad Prism 5.0 and plotted to obtain the curve and IC50.
(In general: Tetrazolium dyes change colour on reduction, which living cells bring about.)

Data set [4] relates to SKOV-3. In words: Cell viability assay by XTT method, SKOV-3. It counts as cell-based. The following applies: Homo sapiens, SK-OV-3. Here is the method: as §6, §7, §8, §9, §10, §11, §12, §13, §14, §15, §16, §17, §18, §19, §20
Data set [5] deals with SD rats. The experiment in a line: Repeated-dose toxicity test in rats. It counts as in vivo. The following applies: 14 days; for hair loss (animals affected) / lassitude (animals affected) / loose stools (animals affected): gavage once daily, 20 rats. Here is the method:
The test substances were suspended in 0.5% methylcellulose solution to prepare suspensions with a concentration of 0.5 mg/mL, 1.5 mg/mL and 3 mg/mL.
Animals: SD rats, 6-8 weeks old, SPF grade, purchased from Beijing Vital River Laboratory Animal Technology Co., Ltd., licensed […] No: SCXK (Beijing) 2006-0009.
The test substances were administrated as a suspension via gavage, and administrating volume was 10 mL/kg. 0.5% methyl cellulose solution was used in the solvent group, and the administrating volume was 10 mL/kg, administered once daily for consecutive 14 days. Animals were observed daily appearance and general behavior changes.

Data set [6] is described as follows: In vivo pharmacokinetics in rats, gavage (PO). Conditions: male, SD, rat, plasma, 4 mg/kg.
Data set [7] can be described thus: In vivo pharmacokinetics in rats, intravenous bolus injection (IV). Conditions: 2 mg/kg.
The target in data set [8] is T1, PI3Kα. In words: biochemical. The data set is classed as binding.
Data set [9] has as its target T2, mTOR. In words: biochemical. The data set is classed as binding.
The conditions of data set [10]: male, SD, rat, in vivo, iv, 2 mg/kg.
Data set [11] in a line: in vivo. The following applies: male, SD, rat, iv, 2 mg/kg.
Data set [12] can be described thus: in vivo. Conditions: male, SD, rat, po, 4 mg/kg.

For the compound `CN1Cc2cnc3ccc(-c4ccc(N)nc4)nc3c2N(c2cccc(C(F)(F)F)c2)C1=O` [Compound 3], the concentration for half-maximal inhibition (IC50) (commonly the midpoint of a concentration-inhibition curve) in data set [1] came to 10.4 nM. Further, in data set [2], the midpoint of inhibition, the IC50, lay at 8.86 nM. Further, in data set [3], the IC50 was determined as 84.7 nM. The same compound displayed an IC50 in data set [4] of 155 nM. Also, in [5] (high dose 30 mg/kg/day), the “hair loss (animals affected)” value is “one and 1/20”; the “lassitude (animals affected)” value is “four and 4/20”; the “loose stools (animals affected)” value was “one and 1/20”. Further, in data set [5] (low dose 5 mg/kg/day), the abnormal vital signs entry is recorded as “no animals with abnormal vital signs”, the “hair loss (animals affected)” value is reported as 0/20, the “lassitude (animals affected)” value is listed as 0/20 and the “loose stools (animals affected)” value is given as 0/20. Further, in data set [5] (middle dose 15 mg/kg/day), the “hair loss (animals affected)” value was 0/20; the “lassitude (animals affected)” value was 0/20; the “loose stools (animals affected)” value is “one and 1/20”. For the same compound, in [6], the AUC (as a rule, the area under the concentration-time curve, a measure of exposure) came to 1380 ng·h/mL; the concentration peaked (Cmax) at 198 ng/mL; the bioavailability (as a rule, dose-corrected exposure relative to a reference, in per cent) worked out at 40.4%; the half-life (as a rule, the time needed for the level to fall by half in the phase considered) is 5.33 h. In data set [7] (male, SD, rat, plasma, iv), this compound had an AUC of 1700 ng·h/mL and a half-life of 6.48 h. In data set [7] (rats, IV), this compound registered a Cl_obs of 19 mL/min/kg and a Vss_obs of 5.6 L/kg.

In turn, `COc1ccc(-c2ccc3ncc4c(c3n2)N(C2CCN(C(=O)[C@@H](C)O)CC2)C(=O)N(C)C4)cn1` [Compound 86, (R)-1-(1-(2-hydroxypropanoyl)piperidin-4-yl)-9-(6-methoxypyridin-3-yl)-3-methyl-3,4-dihydropyrimido[5,4-c][1,5]naphthyridin-2(1H)-one] displayed an IC50 in data set [8] of 9.7 nM. For the same compound, in data set [9], the IC50 came to 257 nM. In addition, in data set [10], the Cl_obs stood at 227 mL/min/kg and the Vss_obs was determined as 3.58 L/kg. Besides, in data set [11], the exposure (AUC) is 154 ng·h/mL and the half-life was 0.2 h. Also, in [12], the AUC worked out at 177 ng·h/mL; the Cmax (in general, the peak of the concentration-time curve) was found to be 251 ng/mL; the time of peak concentration (Tmax) – broadly, the time from dosing to the highest level – was found to be 0.33 h; the bioavailability is 58%. Also, the half-life in [12] is 1.04 h.

For the compound `COc1ccc(-c2ccc3ncc4c(c3n2)N(C2CCNCC2)C(=O)N(C)C4)cn1` [Compound 114], the results for the IC50 in [8] and in [9] were 115 nM and 732 nM, respectively.
